Results as given in patent US7968563B2, “Oxime and hydroxylamine substituted imidazo[4,5-c] ring compounds and methods” (3M Innovative Properties Company, priority 2005, dated 2011).
Where a name gives a salt, the structure may show the parent alone.

## CON(Cc1nc2c(N)nc3cc(OCc4ccccc4)ccc3c2n1CC1CCOCC1)S(C)(=O)=O [Example 8, N-{[4-Amino-7-(benzyloxy)-1-(tetrahydro-2H-pyran-4-ylmethyl)-1H-imidazo[4,5-c]quinolin-2-yl]methyl}-N-methoxymethanesulfonamide]
  melting point: 195 to 197 °C

## CON=Cc1nc2c(N)nc3ccccc3c2n1CC(C)C [Example 4, 4-Amino-1-(2-methylpropyl)-1H-imidazo[4,5-c]quinoline-2-carbaldehyde O-methyloxime]
  melting point: 181 to 183 °C

## CONCc1nc2c(N)nc3ccccc3c2n1CC1CCOCC1 [Example 19, 2-[(Methoxyamino)methyl]-1-(tetrahydro-2H-pyran-4-ylmethyl)-1H-imidazo[4,5-c]quinolin-4-amine]
  melting point: 169 to 171 °C

## CO/N=C/c1nc2c(N)nc(C)c(C)c2n1CC(C)C [Example 14, 4-Amino-1-isobutyl-6,7-dimethyl-1H-imidazo[4,5-c]pyridine-2-carbaldehyde O-methyloxime]
  melting point: 179 to 181 °C

## CON(Cc1nc2c(N)nc(C)c(C)c2n1CC(C)C)C(=O)C1CC1 [Example 11, N-[(4-Amino-1-isobutyl-6,7-dimethyl-1H-imidazo[4,5-c]pyridin-2-yl)methyl]-N-methoxycyclopropanecarboxamide]
  melting point: 135 to 137 °C

## CONCc1nc2c(N)nc3ccccc3c2n1CC(C)(C)O (as salt: hydrochloride) [Example 16, 1-(2-Hydroxy-2-methylpropyl)-2-{[methoxylamino]methyl}-1H-imidazo[4,5-c]quinolin-4-amine; hydrochloride]
  melting point: 255 to 257 °C

## CONCc1nc2cnc3ccccc3c2n1CC1CCOCC1 [Example 17, 2-[(Methoxyamino)methyl]-1-(tetrahydro-2H-pyran-4-ylmethyl)-1H-imidazo[4,5-c]quinoline]
  melting point: 58 to 63 °C

## CON(C)Cc1nc2c(N)nc(C)c(C)c2n1CC(C)C [Example 10, 1-Isobutyl-2-{[methoxy(methyl)amino]methyl}-6,7-dimethyl-1H-imidazo[4,5-c]pyridin-4-amine]
  melting point: 132 to 134 °C

## CONCc1nc2c(N)nc3cc(OCc4ccccc4)ccc3c2n1CC1CCOCC1 [Example 6, 7-(Benzyloxy)-2-[(methoxyamino)methyl]-1-(tetrahydro-2H-pyran-4-ylmethyl)-1H-imidazo[4,5-c]quinolin-4-amine]
  melting point: 190 to 193 °C

## CON(C)Cc1nc2c(N)nc3ccccc3c2n1CC1(O)CCC1 [Example 13, 1-[(4-Amino-2-{[methoxy(methyl)amino]methyl}-1H-imidazo[4,5-c]quinolin-1-yl)methyl]cyclobutanol]
  melting point: 219 to 221 °C

## CON(C)Cc1nc2c(N)nc3ccccc3c2n1CC(C)(C)O [Example 15, 1-(2-Hydroxy-2-methylpropyl)-2-{[methoxy(methyl)amino]methyl}-1H-imidazo[4,5-c]quinolin-4-amine]
  melting point: 220 to 222 °C

## CON(C)Cc1nc2c(N)nc3ccccc3c2n1CC1CCOCC1 [Example 20, 2-{[Methoxy(methyl)amino]methyl}-1-(tetrahydro-2H-pyran-4-ylmethyl)-1H-imidazo[4,5-c]quinolin-4-amine]
  melting point: 223 to 226 °C

## CONCc1nc2c(N)nc(C)c(C)c2n1CC(C)C [Example 9, 1-Isobutyl-2-[(methoxyamino)methyl]-6,7-dimethyl-1H-imidazo[4,5-c]pyridin-4-amine]
  melting point: 154 to 156 °C

## CONCc1nc2c(N)nc3ccccc3c2n1CC1(O)CCC1 [Example 12, 1-({4-Amino-2-[(methoxyamino)methyl]-1H-imidazo[4,5-c]quinolin-1-yl}methyl)cyclobutanol]
  melting point: 178 to 181 °C

## CON=C(C)CCc1nc2c(N)nc3ccccc3c2n1CC(C)(C)O [Example 5, 4-[4-Amino-1-(2-hydroxy-2-methylpropyl)-1H-imidazo[4,5-c]quinolin-2-yl]butan-2-one O-methyloxime]
  melting point: 182 to 184 °C

## CON(C)Cc1nc2c(N)nc3cc(OCc4ccccc4)ccc3c2n1CC1CCOCC1 [Example 7, 7-(Benzyloxy)-2-{[methoxy(methyl)amino]methyl}-1-(tetrahydro-2H-pyran-4-ylmethyl)-1H-imidazo[4,5-c]quinolin-4-amine]
  melting point: 159 to 161 °C

## CON(C)Cc1nc2cnc3ccccc3c2n1CC1CCOCC1 [Example 18, 2-{[Methoxy(methyl)amino]methyl}-1-(tetrahydro-2H-pyran-4-ylmethyl)-1H-imidazo[4,5-c]quinoline]
  melting point: 142 to 144 °C
